Among the data in patent publication EP4582426A1, “PAN-KRAS INHIBITOR COMPOUND” (Adlai Nortye Biopharma Co., Ltd., priority 2022, dated 2024) are IC50 values, retold here.

The subject of one test is SW480 (G12V). Briefly: In vitro cell proliferation inhibition test (CellTiter-Glo Luminescent Cell Viability Assay). It counts as cell-based. The settings on record: SW480 cell line, Large intestine, Colon, KRAS (p.G12V), cells and compounds co-incubated 72 hours. In outline: (§1)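 Cells were seeded at 1000-5000/well and cultured overnight, then exposed to compound (top final 10 µM, ten 3-fold dilutions) for 72 h at 37°C, 5% CO2. Viability was read by CellTiter-Glo luminescence; IC50 was obtained from four-parameter fits of normalized signal.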

For another test, the system named is AsPC-1 (G12D). The test is described as above. Type of test: cell-based. The settings on record: AsPC-1 cell line, Pancreas, KRAS (p.G12D), cells and compounds co-incubated 72 hours. In outline:
as §1

Some results are limits rather than exact numbers.

As to `CCn1c(-c2cc(C#Cc3ccccn3)cnc2[C@H](C)OC)c2c3cc(ccc31)-c1csc(n1)C[C@H](NC(=O)[C@H]1C[C@@H]1C)C(=O)N1CCC[C@H](N1)C(=O)OCC(C)(C)C2` [Example 16, (1S,2S)-N-((63S,4S,Z)-11-ethyl-12-(2-((S)-1-methoxyethyl)-5-(pyridin-2-ylethynyl)pyridin-3-yl)-10,10-dimethyl-5,7-dioxo-61,62,63,64,65,66-hexahydro-11H-8-oxa-2(4,2)-thiazola-1(5,3)-indola-6(1,3)-pyridazinacyclonecaphane-4-yl)-2-methylcyclopropane-1-carboxamide], the IC50 with SW480 (G12V) came to 28.8 nM; with SW480 (G12V) (listed as 16'), 584 nM; in the test with AsPC-1 (G12D) it was 38.8 nM; in the test with AsPC-1 (G12D) (listed as 16'), 591 nM.
On to “(1S,2S)-N-((63S,4S,Z)-1^1-ethyl-1^2-(2-((S)-1-methoxyethyl)-5-((1-methylpiperidin-4-yl)ethynyl)pyridin-3-yl)-10,10-dimethyl-5,7-dioxo-6^1,6^2,6^3,6^4,6^5,6^6-hexahydro-1^1H-8-oxa-2(4,2)-thiazola-1(5,3)-indola-6(1,3)-pyridazinacycloundecaphane-4-yl)-2-methylcyclopropane-1-carboxamide [Example 29]”, for which the IC50 in the test on SW480 (G12V) came to 2.8 nM; with AsPC-1 (G12D) it was 1.2 nM.
Consider `CCn1c(-c2cc(C#CCN3CCC4(CC3)CN(C)C4)cnc2[C@H](C)OC)c2c3cc(ccc31)-c1csc(n1)C[C@H](NC(=O)[C@H]1C[C@@H]1C)C(=O)N1CCC[C@H](N1)C(=O)OCC(C)(C)C2` [Example 50, (1S,2S)-N-((6^3S,4S,Z)-1^1-ethyl-1^2-(2-((S)-1-methoxyethyl)-5-(3-(2-methyl-2,7-diazaspiro[3.5]nonan-7-yl)prop-1-yn-1-yl)pyridin-3-yl)-10,10-dimethyl-5,7-dioxo-6^1,6^2,6^3,6^4,6^5,6^6-hexahydro-1^1H-8-oxa-2(4,2)-thiazola-1(5,3)-indola-6(1,3)-pyridazinacycloundecaphane-4-yl)-2-methylcyclopropane-1-carboxamide], for which the IC50 worked out at 15.2 nM with SW480 (G12V) and 1.2 nM in the test with AsPC-1 (G12D).
For `CCn1c(-c2cc(C#CCN3CCP(C)(=O)CC3)cnc2[C@H](C)OC)c2c3cc(ccc31)-c1csc(n1)C[C@H](NC(=O)[C@H]1C[C@@H]1C)C(=O)N1CCC[C@H](N1)C(=O)OCC(C)(C)C2` [Example 49, (1S,2S)-N-((6^3S,4S,Z)-1^1-ethyl-1^2-(2-((S)-1-methoxyethyl)-5-(3-(4-methyl-4-oxido-1,4-azaphosphinan-1-yl)prop-1-yn-1-yl)pyridin-3-yl)-10,10-dimethyl-5,7-dioxo-6^1,6^2,6^3,6^4,6^5,6^6-hexahydro-1^1H-8-oxa-2(4,2)-thiazola-1(5,3)-indola-6(1,3)-pyridazinacycloundecaphane-4-yl)-2-methylcyclopropane-1-carboxamide], the results for the half-inhibitory concentration (IC50) with SW480 (G12V) and in the test on AsPC-1 (G12D) were 9.2 nM and 7.5 nM, respectively.
For `CCn1c(-c2cc(C#Cc3cccnc3)cnc2C(C)OC)c2c3cc(ccc31)-c1csc(n1)CC(NC(=O)C1CC1C)C(=O)N1CCCC(N1)C(=O)OCC(C)(C)C2` [Example 17, (1S,2S)-N-((63S,4S,Z)-11-ethyl-12-(2-((S)-1-methoxyethyl)-5-(pyridin-3-ylethynyl)pyridin-3-yl)-10,10-dimethyl-5,7-dioxo-61,62,63,64,65,66-hexahydro-11H-8-oxa-2(4,2)-thiazola-1(5,3)-indola-6(1,3)-pyridazinacyclonecaphane-4-yl)-2-methylcyclopropane-1-carboxamide], the IC50 amounted to 30.2 nM in the test on SW480 (G12V), 474 nM with SW480 (G12V) (listed as 17'), 37.8 nM in the test with AsPC-1 (G12D) and 700 nM in the test on AsPC-1 (G12D) (listed as 17').
For `CCn1c(-c2cc(C#CCN3CCOCC3)cnc2[C@H](C)OC)c2c3cc(ccc31)-c1csc(n1)C[C@H](NC(=O)C1CC1)C(=O)N1CCC[C@H](N1)C(=O)OCC(C)(C)C2` [Example 54, N-((6^3S,4S,Z)-1^1-ethyl-1^2-(2-((S)-1-methoxyethyl)-5-(3-morpholinoprop-1-yn-1-yl)pyridin-3-yl)-10,10-dimethyl-5,7-dioxo-6^1,6^2,6^3,6^4,6^5,6^6-hexahydro-1^1H-8-oxa-2(4,2)-thiazola-1(5,3)-indola-6(1,3)-pyridazinacycloundecaphane-4-yl)cyclopropanecarboxamide], the half-maximal inhibitory concentration (IC50) in the test on SW480 (G12V) is 35 nM; with AsPC-1 (G12D), 17.3 nM.
`CCn1c(-c2cc(C#Cc3cnc4c(c3)CN(C)C4)cnc2[C@H](C)OC)c2c3cc(ccc31)-c1csc(n1)C[C@H](NC(=O)[C@H]1C[C@@H]1C)C(=O)N1CCC[C@H](N1)C(=O)OCC(C)(C)C2` [Example 46, (1S,2S)-N-((6^3S,4S,Z)-1^1-ethyl-1^2-(2-((S)-1-methoxyethyl)-5-((6-methyl-6,7-dihydro-5H-pyrrolo[3,4-b]pyridin-3-yl)ethynyl)pyridin-3-yl)-10,10-dimethyl-5,7-dioxo-6^1,6^2,6^3,6^4,6^5,6^6-hexahydro-1^1H-8-oxa-2(4,2)-thiazola-1(5,3)-indola-6(1,3)-pyridazinacycloundecaphane-4-yl)-2-methylcyclopropane-1-carboxamide]: the IC50 came out at 11.4 nM with SW480 (G12V) and 19.5 nM in the test on AsPC-1 (G12D).
Consider “(1r,2R,3S)-N-((6^3S,4S,Z)-12-(5-(3-((S)-3-(ethoxymethyl)morpholino)prop-1-yn-1-yl)-2-((S)-1-methoxyethyl)pyridin-3-yl)-1^1-ethyl-10,10-dimethyl-5,7-dioxo-6^1,6^2,6^3,6^4,6^5,6^6-hexahydro-1^1H-8-oxa-2(4,2)-thiazola-1(5,3)-indola-6(1,3)-pyridazinacycloundecaphane-4-yl)-2,3-dimethylcyclopropane-1-carboxamide [Example 37]”, for which the IC50 worked out at 0.68 nM with SW480 (G12V) and 1.01 nM with AsPC-1 (G12D).
As to `CCn1c(-c2cc(C#CCN3CCOCC3)cnc2[C@H](C)OC)c2c3cc(ccc31)-c1csc(n1)C[C@H](NC(=O)[C@H]1C[C@@H]1c1ccccc1)C(=O)N1CCC[C@H](N1)C(=O)OCC(C)(C)C2` (single isomer, unassigned) [Example 23], the values for the IC50 in the test on SW480 (G12V) and in the test with AsPC-1 (G12D) were 3.8 nM and 1.6 nM, respectively.
As for `CCn1c(-c2cc(C#CC3CN(C)C3)cnc2C(C)OC)c2c3cc(ccc31)-c1csc(n1)CC(NC(=O)C1CC1C)C(=O)N1CCCC(N1)C(=O)OCC(C)(C)C2` [Example 12, (1S,2S)-N-((63S,4S,Z)-11-ethyl-12-(2-((S)-1-methoxyethyl)-5-((1-methylazetidin-3-yl)ethynyl)pyridin-3-yl)-10,10-dimethyl-5,7-dioxo-61,62,63,64,65,66-hexahydro-11H-8-oxa-2(4,2)-thiazola-1(5,3)-indola-6(1,3)-pyridazinacyclonecaphane-4-yl)-2-methylcyclopropane-1-carboxamide], the IC50 in the test on SW480 (G12V) stood at 33.9 nM; with SW480 (G12V) (listed as 12') it was 1790 nM; in the test on AsPC-1 (G12D) it was 11.8 nM; in the test on AsPC-1 (G12D) (listed as 12'), 443 nM.
With `CCn1c(-c2cc(C#CCN3CCOC[C@H]3C)cnc2[C@H](C)OC)c2c3cc(ccc31)-c1csc(n1)C[C@H](NC(=O)[C@H]1C[C@@H]1C)C(=O)N1CCC[C@H](N1)C(=O)OCC(C)(C)C2` [Example 15, (1S,2S)-N-((63S,4S,Z)-11-ethyl-12-(2-((S)-1-methoxyethyl)-5-(3-((R)-3-methylmorpholino)prop-1-yn-1-yl)pyridin-3-yl)-10,10-dimethyl-5,7-dioxo-61,62,63,64,65,66-hexahydro-11H-8-oxa-2 (4,2)-thiazola-1(5,3)-indola-6(1,3)-pyridazinacyclonecaphane-4-yl)-2-methylcyclopropane-1-carboxamide], the IC50 worked out at 2.2 nM with SW480 (G12V), 1060 nM in the test with SW480 (G12V) (listed as 15'), 1.7 nM with AsPC-1 (G12D) and 1880 nM in the test on AsPC-1 (G12D) (listed as 15').
For `CCn1c(-c2cc(C#C[C@@H]3CCN(C)C3)cnc2[C@H](C)OC)c2c3cc(ccc31)-c1csc(n1)C[C@H](NC(=O)C1[C@@H](C)[C@H]1C)C(=O)N1CCC[C@H](N1)C(=O)OCC(C)(C)C2` (stereo partly drawn) [Example 14], the IC50 in the test on SW480 (G12V) is 0.2 nM; in the test with AsPC-1 (G12D), less than 0.1 nM; in the test with AsPC-1 (G12D) (listed as 14'), 57.1 nM.
Take `CCn1c(-c2cc(C#CCN3CCOCC3)cnc2[C@H](C)OC)c2c3cc(ccc31)-c1csc(n1)C[C@H](NC(=O)[C@H]1C[C@@H]1C)C(=O)N1CCC[C@H](N1)C(=O)OCC(C)(C)C2` (single isomer, unassigned) [Example 1]: the half-maximal inhibitory concentration (IC50) in the test on SW480 (G12V) was 1.02 nM; in the test on SW480 (G12V) (listed as 1'), 343 nM; with AsPC-1 (G12D), 0.92 nM; in the test with AsPC-1 (G12D) (listed as 1'), 582 nM.
In the case of `CCn1c(-c2cc(C#CCN3CCN(C(C)=O)CC3)cnc2C(C)OC)c2c3cc(ccc31)-c1csc(n1)CC(NC(=O)C1C(C)C1C)C(=O)N1CCCC(N1)C(=O)OCC(C)(C)C2` [Example 41, (1r,2R,3S)-N-((6^3S,4S,Z)-1^2-(5-(3-(4-acetylpiperazin-1-yl)prop-1-yn-1-yl)-2-((S)-1-methoxyethyl)pyridin-3-yl)-1^1-ethyl-10,10-dimethyl-5,7-dioxo-6^1,6^2,6^3,6^4,6^5,6^6-hexahydro-1^1H-8-oxa-2(4,2)-thiazola-1(5,3)-indola-6(1,3)-pyridazinacycloundecaphane-4-yl)-2,3-dimethylcyclopropane-1-carboxamide], the IC50 in the test with SW480 (G12V) is 0.65 nM; in the test with AsPC-1 (G12D) it was 0.56 nM.
